Experimental data taken from patent publication US20170172963A1, “COMPOSITIONS AND METHODS FOR THE PREVENTION AND OR TREATMENT OF SCHISTOSOMIASIS” (DSM IP ASSETS B.V., priority 2014, published 2017).
“And” between values parts separate entries of the source, which are not always exact repeats. Equal values may be shown once.

Columns and labels:
Assay type in all cases: in vivo, human
Schistosoma mansoni [1] = assay: Example 2: stool egg counts (epg) and cure rate in infected school children, El Kafr Sheikh; set-up: % epg reduction: concentration or dose not given beside the values
Experimental: School children from El Kafr Sheikh were screened similar to those school children in Example 1 above.
(§1) The children were divided randomly into three groups whereby the first group of children were given a single oral dose of Praziquantel (PZQ) (40 mg/kg body weight) on the first day of treatment and a placebo was given for the next three weeks (5 doses/week) (“PZQ-Placebo Treatment”). The PZQ was Distocide (Epico, El-Asher-Men-Ramadan City, Egypt). The placebo was 1 g VegCap, containing corn-soy (DSM Nutritional Products, Columbia, Md.). The second group of children received ARA (10 mg/kg body weight/day) for 15 days over three weeks (5 days/week) (“ARA Treatment”). The ARA was 1 g VegCap (DSM) containing approximately 395 mg ARA/capsule. The third group of children were given Praziquantel (40 mg/kg body weight) in the first day of treatment and then received 15 doses of ARA (10 mg/kg/day; 5 doses/week) (“PZQ-ARA Treatment”).
(§2) Approximately 10 ml blood were obtained from each child 2-3 days before the start of the treatment and 3 days after the end of the ARA (or ARA+PZQ) treatment, corresponding to 18 days after PZQ-only treatment. Stool samples were obtained from each child on 3 consecutive days 1 week after the end of the ARA treatment (corresponding to 4 weeks after the PZQ-only treatment) and 6 weeks after the end of the ARA treatment (corresponding to 9 weeks after the PZQ-only treatment). Epg was assessed on each stool sample.
(§3) Subjects having initial baseline epg counts <100 were classified as having low infection. Subjects having initial baseline epg counts >100 but <400 were classified as having moderate infection. Subjects having initial baseline epg counts >400 were classified as having high infection.

IFN-γ = assay: Example 2: plasma IFN-γ level by capture ELISA after treatment; conditions: for Median IFN-γ after treatment / % reduction in IFN-γ levels: plasma; for Median IFN-γ after treatment: 3 days after end of ARA treatment (18 days after PZQ); for % reduction in IFN-γ levels: after treatment vs baseline
Experimental: as §1, §2
(§4) Plasma was retrieved from heparinized blood following centrifugation at 400 g for 20 minutes and stored at −76° C. until assayed by capture enzyme-linked immunosorbent assay (ELISA) for levels of IL-10 and IFN-γ (ELISA MAX™ Set, BioLegend, San Diego, Calif.) according to the manufacturer's protocol.

IL-10 = assay: Example 2: plasma IL-10 level by capture ELISA after treatment; conditions: for Median IL-10 after treatment / % reduction in IL-10 levels: plasma; for Median IL-10 after treatment: 3 days after end of ARA treatment (18 days after PZQ); for % reduction in IL-10 levels: after treatment vs baseline
Experimental: as §1, §2, §4

Schistosoma mansoni [2] = assay: Example 1: stool egg counts (Kato-Katz, epg) and cure rate in infected school children, Menoufiya; conditions: for % cure rate: children with 0 epg after week 9
Experimental: Approximately 2000 school children in villages of three districts in the Menoufiya governorate located about 100 km north of Cairo, Egypt were screened. Two microscopic slides of stool samples were examined for each child on 3 consecutive days by the Kato-Katz method and egg counts per gram (epg) were recorded. 66 children, 44 males and 22 females, 6-15 years old (mean±SD=11.7±1.6), with weight range of 25-52 kg (mean±SD=37.8±8.6), and epg of 24-384 were selected as test subjects. 20 sex, age, and social conditions-matched, parasite-free children were used as controls.
The 66 children were divided randomly into three groups whereby the first group of 20 children were given a single oral dose of Praziquantel (PZQ) (40 mg/kg body weight) on the first day of treatment and a placebo was given for the next three weeks (5 doses/week) (“PZQ-Placebo Treatment”). The PZQ was Distocide (Epico, El-Asher-Men-Ramadan City, Egypt). The placebo was 1 g VegCap, containing corn-soy (DSM Nutritional Products, Columbia, Md.). The second group of 23 children received ARA (10 mg/kg body weight/day) for 15 days over three weeks (5 days/week) (“ARA Treatment”) The ARA was 1 g VegCap (DSM) containing approximately 395 mg ARA/capsule. The third group of 23 children were given Praziquantel (40 mg/kg body weight) in the first day of treatment and then received 15 doses of ARA (10 mg/kg/day; 5 doses/week) (“PZQ+ARA Treatment”).
as §2, §3

[3] = initial baseline epg < 100, mean epg 6 weeks after treatment vs mean baseline epg
[4] = initial baseline epg > 100 and < 400, mean epg 6 weeks after treatment vs mean baseline epg
[5] = initial baseline epg > 400, mean epg 6 weeks after treatment vs mean baseline epg
[6] = low infection, initial baseline epg < 100
[7] = moderate infection, initial baseline epg > 100 and < 400
[8] = low infection (baseline epg < 100)
[9] = moderate and high infection (baseline epg > 100)

CCCCC/C=C\C/C=C\C/C=C\C/C=C\CCCC(=O)O [ARA, all-cis 5,8,11,14-eicosatetreanoic acid]
% epg reduction (Schistosoma mansoni [1]; [3]): −2.6% | % epg reduction (Schistosoma mansoni [1]; [4]): 49% | % epg reduction (Schistosoma mansoni [1]; [5]): 65% | % cured (Schistosoma mansoni [1]; [6]): 50% and 50 (22/43) % | % cured (Schistosoma mansoni [1]; [7]): 49% and 28 (4/19) % | levels of circulating IFN-γ (result in words) (IFN-γ; after treatment): more effective | Median IFN-γ after treatment (IFN-γ): 25 pg/mL | % reduction in IFN-γ levels (IFN-γ): 70% | levels of circulating IL-10 (result in words) (IL-10; after treatment): more effective | Median IL-10 after treatment (IL-10): 40 pg/mL | % reduction in IL-10 levels (IL-10): 50% | epg After Week 4 (Schistosoma mansoni [2]; individual subjects with initial baseline epg < 100, stool 4 weeks after PZQ / 1 week after end of ARA): 12 epg and 0 epg (4×) and 144 epg and 24 epg (2×) and 20 epg and 52 epg and 48 epg and 19 epg | epg After Week 9 (Schistosoma mansoni [2]; individual subjects with initial baseline epg < 100, stool 9 weeks after PZQ / 6 weeks after end of ARA): 0 epg (10×) and 376 epg and 20 epg and 42 epg | epg After Week 4 (Schistosoma mansoni [2]; individual subjects with initial baseline epg > 100, stool 4 weeks after PZQ / 1 week after end of ARA): 240 epg and 96 epg (3×) and 749 epg and 216 epg and 84 epg and 0 epg and 48 epg and 60 epg | epg After Week 9 (Schistosoma mansoni [2]; individual subjects with initial baseline epg > 100, stool 9 weeks after PZQ / 6 weeks after end of ARA): 0 epg (5×) and 108 epg and 48 epg and 28 epg and 20 epg and 152 epg | % cure rate (Schistosoma mansoni [2]; [8]): 77% | % cure rate (Schistosoma mansoni [2]; [9]): 50%

O=C(C1CCCCC1)N1CC(=O)N2CCc3ccccc3C2C1 (stereo not drawn) [PZQ, 2-(Cyclohexylcarbonyl)-1,2,3,6,7,11b-hexahydro-4H-pyrazino[2,1-a] isoquinolin-4-one, reference compound]
% cured (Schistosoma mansoni [1]; high infection, initial baseline epg > 400): 30 (8/26) % | % cured (Schistosoma mansoni [1]; high infection, initial baseline epg > 400, listed as PZQ-Placebo): 81% | % epg reduction (Schistosoma mansoni [1]; [3]): 50% | % epg reduction (Schistosoma mansoni [1]; [4]): 70% | % epg reduction (Schistosoma mansoni [1]; [5]): 81% | % cured (Schistosoma mansoni [1]; [6]): 57 (20/35) % | % cured (Schistosoma mansoni [1]; low infection, initial baseline epg < 100, listed as PZQ-Placebo): 57% | % cured (Schistosoma mansoni [1]; [7]): 43 (10/23) % | % cured (Schistosoma mansoni [1]; moderate infection, initial baseline epg > 100 and < 400, listed as PZQ-Placebo): 70% | Median IFN-γ after treatment (IFN-γ): 32.5 pg/mL | % reduction in IFN-γ levels (IFN-γ): 60% | Median IL-10 after treatment (IL-10): 36 pg/mL | % reduction in IL-10 levels (IL-10): 42% | epg After Week 4 (Schistosoma mansoni [2]; individual subjects with initial baseline epg < 100, stool 4 weeks after PZQ / 1 week after end of ARA, listed as PZQ-Placebo): 8 epg and 0 epg (9×) and 5 epg (2×) | epg After Week 9 (Schistosoma mansoni [2]; individual subjects with initial baseline epg < 100, stool 9 weeks after PZQ / 6 weeks after end of ARA, listed as PZQ-Placebo): 10 epg and 4 epg and 0 epg (10×) and 6 epg and 20 epg | epg After Week 4 (Schistosoma mansoni [2]; individual subjects with initial baseline epg > 100, stool 4 weeks after PZQ / 1 week after end of ARA, listed as PZQ- Placebo): 0 epg (3×) and 16 epg | epg After Week 9 (Schistosoma mansoni [2]; individual subjects with initial baseline epg > 100, stool 9 weeks after PZQ / 6 weeks after end of ARA, listed as PZQ- Placebo): 0 epg (4×) and 10 epg and 30 epg | % cure rate (Schistosoma mansoni [2]; [8]): 71% | % cure rate (Schistosoma mansoni [2]; [9]): 67%
